Measured values reported in ChEMBL document CHEMBL3045694, “Insecticidal activity and chemical composition of volatile oils from Hyptis martiusii Benth” (2003).

Legend:
Format in all cases: functional
[1] = system: Aedes aegypti; test: Larvicidal activity against third larval stage of Aedes aegypti assessed as mortality at 25 mg/L after 24 hr
[2] = system: Aedes aegypti; test: Larvicidal activity against third larval stage of Aedes aegypti assessed as mortality at 50 mg/L after 24 hr
[3] = system: Aedes aegypti; test: Larvicidal activity against third larval stage of Aedes aegypti assessed as mortality at 250 mg/L after 24 hr
[4] = system: Aedes aegypti; test: Larvicidal activity against third larval stage of Aedes aegypti assessed as mortality at 100 mg/L after 24 hr
[5] = system: Aedes aegypti; test: Larvicidal activity against third larval stage of Aedes aegypti assessed as mortality at 500 mg/L after 24 hr
[6] = system: Bemisia argentifolii; test: Insecticidal activity against adult Bemisia argentifolii reared on compound-treated melon leaves assessed as layed eggs at 1000 mg/L applied as spray after 72 hr
[7] = system: Bemisia argentifolii; test: Insecticidal activity against adult Bemisia argentifolii reared on compound-treated melon leaves assessed as mortality at 1000 mg/L applied as spray after 72 hr

Question: CC12CCC(CC1)C(C)(C)O2 [EUCALYPTOL] was tested. Which mortality at 25 µg/mL [1] did it give?
Answer: The mortality at 25 µg/mL was 10%.

Question: What about the mortality at 50 µg/mL [2] of the same molecule?
Answer: The mortality at 50 µg/mL was 53%.

Question: What about the mortality at 250 µg/mL [3] of the same molecule?
Answer: Its mortality at 250 µg/mL is 100%.

Question: What about the mortality at 100 µg/mL [4] of the same molecule?
Answer: Its mortality at 100 µg/mL is 100%.

Question: And the mortality at 500 µg/mL [5]?
Answer: Its mortality at 500 µg/mL is 100%.

Question: And the Activity [6]?
Answer: The Activity was 9.2%.

Question: And the mortality at 1000 µg/mL [7]?
Answer: Its mortality at 1000 µg/mL is 91.2%.
